This is an account of results in publication PMC9780326, “Venom composition and pain-causing toxins of the Australian great carpenter bee Xylocopa aruana” (Scientific Reports, 2022).

Read-outs that look alike come from different tables or passages of the source. No end group written: not given here.

For one test, the system named is HEK293AD cells. Put plainly: Whole-cell patch-clamp, leak current in HEK293AD cells (QPatch 16X). The class given is cell-based. How it is done: The mature peptide of XYTX1-Xa1a shares a similar primary structure with Xac-1, Xac-2 and melectin. […] We hypothesised that XYTX1-Xa1a would share the same activity. We tested, by whole-cell patch-clamp electrophysiology, the capacity of XYTX1-Xa1a to directly induce leak currents in cell membranes. For these experiments we used HEK293AD cells, which lack appreciable expression of the ion channels found in neurons. At 4 min after application of XYTX1-Xa1a (30 μM) we recorded leak currents at test potentials ranging from − 60 to + 60 mV in 10-mV increments from a holding potential of 0 mV every 6 s. At + 60 mV, we recorded currents of 3.3 ± 0.6 nA (mean ± SEM, n = 6 cells) compared with 0.08 ± 0.02 nA (n = 5 cells) for time-matched negative controls (application of extracellular solution (ECS)) (Fig. 3a–c).
(a) Representative current traces in HEK293AD cells at voltages of − 60 to + 60 mV (10 mV steps) acquired before application and 2 min after application of (a) extracellular solution (ECS) or (b) 30 μM XYTX1-Xa1a. […] Data are expressed as mean ± SEM (n = 5–6 cells) and fitted to a simple linear regression. […]
HEK293AD cells (American Type Culture Collection) were cultured as previously described. […] From a holding potential of 0 mV each recorded cell was subjected to a series of 50-ms voltage pulses that ranged from − 60 to + 60 mV in 10-mV increments. […]
A general note: In patch-clamp work, channel activity is measured electrically.

In another test the test system is F11 cells. The class given is cell-based, mouse neuroblastoma × rat DRG cell line. The following applies: FLIPR, Calcium 4; peptide in PSS + 0.1% BSA, 300 s; mean ± SEM, n = 6; read-out: EC50, increase of [Ca2+]i in F11 cells. How it is done: F11 (mouse neuroblastoma × DRG neuron hybrid; European Collection of Authenticated Cell Cultures) were cultured as previously described. Cells were maintained on Ham’s F12 media supplemented with 10% FBS, 100 µM hypoxanthine, 0.4 µM aminopterin, and 16 µM thymidine (Hybri-Max, Sigma Aldrich). 384-well imaging plates (Corning, Lowell, MA, USA) were seeded 24 h prior to calcium imaging, resulting in ~ 90% confluence at the time of imaging. Cells were loaded for 30 min at 37 °C with Calcium 4 assay component A in physiological salt solution (PSS; 140 mM NaCl, 11.5 mM D-glucose, 5.9 mM KCl, 1.4 mM MgCl2, 1.2 mM NaH2PO4, 5 mM NaHCO3, 1.8 mM CaCl2, 10 mM HEPES) according to the manufacturer’s instructions (Molecular Devices, Sunnyvale, CA). Ca^2+ responses were measured using a FLIPR^TETRA fluorescent plate reader equipped with a CCD camera (Ex: 470 to 490 nm, Em: […]) (Molecular Devices, Sunnyvale, CA). Signals were read every second for 10 s before, and 300 s after, the addition of peptide (in PSS supplemented with 0.1% BSA).
Data were plotted and analysed using Prism v9.0.0 (GraphPad Software, San Diego, CA, USA). For calcium imaging experiments of mouse DRG neurons and F11 cells, treatment groups were compared using unpaired t-tests. […]

For test [1], the system named is mice. The format is in vivo, male C57BL/6J mice. As to conditions: for pain behaviours on co-injection with venom PLA2: 200 pmol + venom PLA2 (20 pmol); for spontaneous pain behaviours: 200 pmol alone, 20 µL.
Test [2] relates to mice. As to the kind of experiment: Paw swelling (paw thickness) after intraplantar injection. The format is in vivo, male C57BL/6J mice. The following applies: 200 pmol + venom PLA2 (20 pmol).
For test [3] the following is noted: cited from earlier work. The source says:
By far the most studied bee venom is that of the Western honeybee Apis mellifera. Its venom is dominated by a 26-residue cysteine-free amphipathic peptide known as melittin which makes up 40–60% of the dry weight of the venom. Another major components is venom phospholipase-A2 (PLA2; 10–12% dry weight), with smaller amounts of histamine (5–10%), venom hyaluronidase (1–2%) and the small disulfide-rich peptides apamin (3%) and mast cell-degranulating (MCD)-peptide (2%)[4]. Other reported components are present in trace amounts.

The subject of test [4] is mouse dorsal root ganglion (DRG) cells. As to the kind of experiment: Calcium imaging assay of mouse DRG neurons. The class given is cell-based. How it is done: Figure 5 Pain-causing effects of X. aruana venom components. (a,b) Application of XYTX1-Xa1a (10 μM) to DRG cells produced an immediate and sustained, non-cell-specific increase in [Ca^2+]i. (c) Potency of XYTX1-Xa1a and melittin in F11 cells, as monitored by changes in [Ca^2+]i. (d–f) The increase in [Ca^2+]i caused by XYTX1-Xa1a was potentiated by the presence of venom PLA2 (1 µM), but not XYTX2-Xa2a (1 μM). **P < 0.01 (unpaired t-test). […] Data are expressed as mean ± SEM (n = 3–6). […] Data are expressed as mean ± SEM (n = 3–6). *P < 0.05; **P < 0.01; ****P < 0.0001 (one way-ANOVA with Tukey’s multiple comparisons).
DRG cells were isolated from 4- to 6-week-old-male C57BL/6 mice that were purchased from the Animal Resources Centre (WA, Australia). DRGs were dissociated, then cells were plated in Dulbecco’s Modified Eagle’s Medium (DMEM; Gibco, MD, USA) containing 10% fetal bovine serum (FBS) (Assaymatrix, VIC, Australia) and penicillin/streptomycin (Gibco) on a 96-well poly-D-lysine-coated culture plate (Corning, ME, USA) and maintained overnight. Cells were loaded with Fluo-4 AM calcium indicator, according to the manufacturer’s instructions (ThermoFisher Scientific, MA, USA). After loading (1 h), the dye-containing solution was replaced with assay solution (1× Hanks’ balanced salt solution, 20 mM HEPES). Images were acquired at 10× objective at 1 frame/s (excitation 485 nm, emission 521 nm). Fluorescence corresponding to [Ca^2+]i of ~ 250 cells per experiment was monitored in parallel using an Nikon Ti-E Deconvolution inverted microscope, equipped with a Lumencor Spectra LED Lightsource. Baseline fluorescence was monitored for 30 s. At 30 s, assay solution was replaced with either assay solution, or assay solution containing venom PLA2 (1 µM) or XYTX2-Xa2a (1 µM), then at 1 min with XYTX1-Xa1a (in assay solution ± venom PLA2 (1 µM) or XYTX2-Xa2a (1 µM)) and monitored for 2 min before being replaced with assay solution and then KCl (30 mM; positive control). Experiments involving the use of mouse tissue were approved by the University of Queensland Animal Ethics Committee (UQ AEC; approval number TRI/IMB/093/17).
Data were plotted and analysed using Prism v9.0.0 (GraphPad Software, San Diego, CA, USA). For calcium imaging experiments of mouse DRG neurons and F11 cells, treatment groups were compared using unpaired t-tests. For analysis of spontaneous pain, sum of pain behaviour counts at 30 min of treatment groups were compared using one-way ANOVA with Tukey’s multiple comparisons test. Statistical significance was defined as P < 0.05. All data are presented as mean ± SEM.

For test [5], the system named is mice. The format is in vivo, male C57BL/6J mice.
The subject of test [6] is Shaker-like voltage-gated potassium (KV) channel KV1.1. As to conditions: cited from earlier work.
For test [7], the system named is Shaker-like voltage-gated potassium (KV) channel KV1.2. The following applies: cited from earlier work.
Test [8] has as its system mammalian small conductance calcium-activated potassium (KCa, SK) channel KCa2.2. The following applies: cited from earlier work. The source says:
XYTX2-Xa2a is similar in sequence to Bombus and Apis MCD-peptides and apamin. Apamin is a blocker of the mammalian small conductance calcium-activated potassium (KCa, SK) channel KCa2.2[20], while Apis MCD peptide is a blocker of Shaker-like voltage-gated potassium (KV) channels KV1.1 and KV1.2[21]. We hypothesised that XYTX2-Xa2a might share similar activity. Thus, we tested XYTX2-Xa2a for activity on human KV1.1, KV1.2, KV1.3, KCa2.1 and KCa2.2.

On to `CC[C@H](C)[C@H](NC(=O)CN)C(=O)NCC(=O)N[C@@H](C)C(=O)N[C@H](C(=O)N[C@@H](CC(C)C)C(=O)N[C@@H](CCCCN)C(=O)N[C@H](C(=O)N[C@@H](CC(C)C)C(=O)N[C@H](C(=O)N[C@H](C(=O)NCC(=O)N[C@@H](CC(C)C)C(=O)N1CCC[C@H]1C(=O)N[C@@H](C)C(=O)N[C@@H](CC(C)C)C(=O)N[C@H](C(=O)N[C@@H](CO)C(=O)N[C@@H](Cc1c[nH]c2ccccc12)C(=O)N[C@H](C(=O)N[C@@H](CCCCN)C(=O)N[C@@H](CCCNC(=N)N)C(=O)N[C@@H](CCCCN)C(=O)N[C@@H](CCCNC(=N)N)C(=O)N[C@@H](CCC(N)=O)C(=O)N[C@@H](CCC(N)=O)C(N)=O)[C@@H](C)CC)[C@@H](C)CC)[C@@H](C)O)[C@@H](C)O)C(C)C)C(C)C` [melittin], for which, in the test on HEK293AD cells (10 μM melittin, 2 min after addition, n = 5 cells, Fig. S4), the “leak current in HEK293AD cells” value was “causes a leak current in HEK293AD cells”. In the test with F11 cells, the EC50 – broadly, the concentration at which the effect is half-maximal – worked out at 1.2 ± 0.1 µM. In addition, in the test with mice [1], the “pain behaviours on co-injection with venom PLA2” value is reported as “potentiated by co-injection with 20 pmol venom PLA2”. Also, the spontaneous pain behaviours result in the test on mice [1] (shallow intraplantar) is recorded as “caused spontaneous pain behaviours”. Further, the paw swelling result with mice [2] is “caused paw swelling”. For the same molecule, the pore formation result in test [3] is given as “can form pores in cell membranes”.
GFLSILKKLPLILKHLP-NH2 [XYTX1-Xa1a]: the “leak current at + 60 mV” value in the test with HEK293AD cells (30 μM, 4 min after application, holding potential 0 mV, mean ± SEM, n = 6 cells, negative control ECS 0.08 ± 0.02 nA (n = 5 cells)) came out at 3.3 ± 0.6 nA. Also, the “neurons with increase of [Ca2+]i” value in test [4] (10 μM (Fig. 5 legend), alone, mean ± SEM) is reported as 49.4 ± 3.2%. In test [4] (with XYTX2-Xa2a (1 μM), mean ± SEM), the “neurons activated, in the presence of XYTX2-Xa2a” value is recorded as 45.8 ± 5.5%. Also, in test [4] (with venom PLA2 (1 µM), leakage of dye into extracellular media), the “cell lysis in the presence of venom PLA2” value is recorded as “increased cell lysis”. Also, the “neurons activated, in the presence of venom PLA2” value in [4] (with venom PLA2 (1 µM), mean ± SEM) worked out at 93.2 ± 6.5%. Moreover, the EC50 with F11 cells was found to be 5.2 ± 0.7 µM. For the same molecule, the “pain behaviours on co-injection with venom PLA2” value with mice [1] is “increased (frequency and duration)”. In the test with mice [1] (shallow intraplantar), the spontaneous pain behaviours result is given as “caused spontaneous pain behaviours”. In addition, in the test with mice [2], the paw swelling entry is “caused paw swelling”.
With “MCD-peptide: mast cell-degranulating (MCD)-peptide of A. mellifera (Uniprot: P01499), purchased from Alomone labs (IKCNCKRHVIKPHICRKICGKN; UniProt P01499 28-49, looked up)”, the “pain behaviour counts versus control” value with mice [1] (mouse, in vivo) is “not different to control”. Moreover, the “paw-withdrawal threshold to a mechanical stimulus versus negative control (saline)” value with mice [5] (mouse, in vivo) was “no difference to negative control (saline) injection”. For the same molecule, the “block of KV1.1” value in test [6] was “blocker”. The “block of KV1.2” value in [7] is recorded as “blocker”.
Consider “apamin: A. mellifera apamin (Uniprot: P01500), purchased from Alomone labs (CNCKAPETALCARRCQQH; UniProt P01500 28-45, looked up)”, for which, in the test on mice [1] (2 pmol alone, shallow intraplantar), the “pain behaviour counts versus control” value was “not different to control”. In the test on mice [5] (2 pmol/paw intraplantar, 1 and 4 h), the “paw-withdrawal threshold to a mechanical stimulus versus negative control (saline)” value is listed as “no difference to negative control (saline) injection”. In [8], the “block of mammalian KCa2.2” value was “blocker”.
